Experimental data: patent US20120128665A1, “PRESELECTION OF SUBJECTS FOR THERAPEUTIC TREATMENT BASED ON HYPOXIC STATUS” (SYNTA PHARMACEUTICALS CORP., priority 2010, published 2012)
Read-outs that look alike come from different tables or passages of the source.

How the values were obtained:
[1] = test system: cancer of the parotid gland; conditions: one patient; ganetespib 150 mg/m^2 with docetaxel 75 mg/m^2; cited from earlier work
solid tumors = conditions: once-weekly dosing; cited from earlier work
[2] = test system: wide range of cancer types; conditions: cited from earlier work
[3] = test system: advanced relapsed/refractory NSCLC; conditions: cited from earlier work
[4] = test system: HCT116 tumors vs 786O tumors; experiment: response of hypoxic vs non-hypoxic tumors; assay type: in vivo, nude mice; conditions: doses as in the 3rd table
glioblastoma [5] = conditions: 85 patients treated with bevacizumab alone; cited from earlier work
[6] = test system: HCT116 human colon carcinoma xenograft; experiment: HCT116 xenograft model (hypoxic tumor); assay type: in vivo, nude mice
Procedure: (§1) Human tumor cell lines HCT116 (ATCC #CRL-247; Schroy PC, et al. Cancer 76:201-209, 1995) and 786-O (ATCC #CRL-1932; Williams RD, et al. In Vitro 12:623-627, 1976), were obtained from the American Type Culture Collection (Manassus, Va., USA) were cultured using routine methods until a sufficient number of cells were obtained for implantation. Studies were conducted on animals between 7 and 12 weeks of age at implantation. To implant HCT116 tumor cells into nude mice, the cells were trypsinized, washed in PBS and resuspended at a concentration of 75×10^6 cells/ml in McCoy's modified medium with 50% of BD Matrigel® Basement Membrane Matrix (BD Biosciences®, Bedford, Mass., USA). To implant 786-O tumor cells into nude mice, the cells were trypsinized as above, washed in PBS and resuspended at a concentration of 75×10^6 cells/ml in RPMI 1640 medium with 50% of BD Matrigel® Basement Membrane Matrix. Using a 27 gauge needle and 1 cc syringe, 0.1 ml of the cell suspension was injected into the corpus adiposum of nude mice. The corpus adiposum is a fat body located in the ventral abdominal vicera in the right quadrant of the abdomen at the juncture of the os coxae (pelvic bone) and the os femoris (femur). The location permits palpation and measurement of the tumors using external calipers. Tumor volumes (V) were calculated by caliper measurement of the width (W), length (L) and thickness (T) of tumors using the following formula: V=0.5236×(L×W×T). Animals were randomized into treatment groups so that the average tumor volumes of each group were similar at the start of dosing.
(§2) A tumor model in which the tumors have relatively high and low levels of LDH5, indicating high and low levels of hypoxia, using human tumor cell lines HCT116 and 786-O was established as set forth in the previous example.
(§3) As above, HCT116 and 786-O cells were cultured and implanted into nude mice using the methods in the previous example. Tumor growth was measured using calipers. Prior to treatment with the various agents, tumors were permitted to develop in vivo until they reached approximately 150 mm^3 in volume, which typically required 2-3 weeks following implantation. Animals were randomized into treatment groups so that the average tumor volumes of each group were similar at the start of dosing.
(§4) Tumor volume was monitored throughout the course of the study, until up to about 40 days from the date of tumor implantation. The exact number of days of the study depended on a number of factors including, for example, the number of days from implantation for the tumors to reach the desired volume.

[7] = test system: metastatic colorectal cancer; conditions: cited from earlier work
[8] = test system: HER2-negative, metastatic breast cancer; conditions: added to standard chemotherapy; cited from earlier work
glioblastoma [9] = conditions: 56 patients treated with bevacizumab alone; cited from earlier work
[10] = test system: metastatic colorectal cancer; conditions: cited from earlier work; remark: listed apart in the source
[11] = test system: 786-O human renal carcinoma xenograft; experiment: 786-O xenograft model (non-hypoxic tumor); assay type: in vivo, nude mice
Procedure: as §1, §2, §3, §4

renal cancer = conditions: cited from earlier work
[12] = test system: advanced non-squamous, non-small cell lung cancer (NSCLC); conditions: bevacizumab arm = with paclitaxel and carboplatin; comparator chemotherapy alone; statistically significant; cited from earlier work
[13] = test system: metastatic pancreatic cancer; conditions: cited from earlier work

## CC(C)c1cc(-c2nnc(O)n2-c2ccc3c(ccn3C)c2)c(O)cc1O [ganetespib]
[1]
  shrinkage of target tumor lesions, confirmed partial response: over 50%
Solid tumors
  evaluable patients with disease control: more than half
  outcome in several patients who had progressed or failed multiple prior therapies: substantial tumor shrinkage and prolonged disease control
[2]
  activity against cancers resistant to imatinib, sunitinib, erlotinib and dasatinib: potent activity
[2]; lung, prostate, colon, breast, gastric, pancreatic, GIST, melanoma, AML, CML, lymphomas, multiple myeloma, in vitro and in vivo models
  activity against a wide range of cancer types: potent activity
[3]; ALK rearrangement, four patients
  patients with durable, objective responses: 50%
[3]; ALK rearrangement, seven of eight
  patients who received ganetespib for 16 weeks or more: 88%
[3]; ALK rearrangement, six of eight patients
  patients with tumor shrinkage: 75%
[3]; broad population
  disease control rate: 54%
[3]; compared with other Hsp90 inhibitors
  hepatic and ocular toxicities: did not have the serious hepatic or common ocular toxicities
[3]; in vivo
  tolerability: well tolerated
[3]; tumors with a KRAS mutation
  patients with tumor shrinkage: 62%
[4]
  effectiveness at slowing tumor growth in tumors with high levels of hypoxia (HCT116) compared with low levels (786O): not found to work better

## bevacizumab: recombinant humanized monoclonal IgG1 antibody that binds to and inhibits human vascular endothelial growth factor (VEGF)
Glioblastoma [5]
  patients whose tumors shrank: 26%
[6]; bevacizumab higher dose (4 mg/kg) i.p., p=0.0424
  tumor growth as compared to control: reduced the growth of the tumor
[6]; bevacizumab lower concentration (1 mg/kg) i.p., p=0.1274
  tumor growth as compared to control: small trend to decreased tumor growth
[4]
  effectiveness at slowing tumor growth in tumors with high levels of hypoxia (HCT116) compared with low levels (786O): more effective
[7]; bevacizumab and 5-FU/Leucovorin (n=249) vs IFL regimen alone
  median survival: 17.9 months
[7]; bevacizumab plus 5-FU/Leucovorin vs IFL regimen alone
  progression-free survival: 8.7 months
[8]
  keeping cancer from worsening: does not keep cancer from worsening for a long enough time to be clinically meaningful
Glioblastoma [9]
  patients who responded: 20%
[10]; bevacizumab arm = bevacizumab plus 5-FU/Leucovorin, comparator 5-FU/Leucovorin alone, not statistically significant
  median survival: 16.6 months
[10]; bevacizumab plus 5-FU/Leucovorin vs 5-FU/Leucovorin alone
  improvement in median survival: 29%
[11]; bevacizumab higher dose (4 mg/kg) i.p., p=0.011
  tumor burden as compared to control: greatest tumor burden
[11]; low dose bevacizumab (1 mg/kg) i.p., p=0.437
  tumor burden as compared to control: no significant difference in tumor burden
Renal cancer; bevacizumab arm = with interferon-alpha, comparator interferon-alpha alone
  patients with decreased tumor size: 30%
Renal cancer; bevacizumab with interferon-alpha
  increase in progression-free survival time compared to interferon-alpha alone: about 5 months
[12]
  median overall survival: 12.5 months
[13]; bevacizumab vs placebo arm, both with gemcitabine and erlotinib, 95% CI 0.61 to 0.96, P=0.0002
  progression free survival HR: 0.73
[13]; bevacizumab, gemcitabine and erlotinib, 306 patients
  median overall survival: 7.1 months
